Experimental data from article PMC5064445 (ACS infectious diseases, 2015).

What was measured:
[1] = biological target: NDM-1 (Klebsiella pneumoniae, UniProt C7C422); assay: Inhibition of NDM-1-catalyzed imipenem hydrolysis; assay type: biochemical; conditions: relative to L-CS319
[2] = test system: HEK 293 cells; assay: Cytotoxicity assay; assay type: cell-based, human; conditions: up to 500 μM; 24 h incubation
[3] = test system: HeLa cells; assay: Cytotoxicity assay; assay type: cell-based, human; conditions: up to 500 μM; 24 h incubation

NDM-1, sequence (C7C422 39-270 limits assumed): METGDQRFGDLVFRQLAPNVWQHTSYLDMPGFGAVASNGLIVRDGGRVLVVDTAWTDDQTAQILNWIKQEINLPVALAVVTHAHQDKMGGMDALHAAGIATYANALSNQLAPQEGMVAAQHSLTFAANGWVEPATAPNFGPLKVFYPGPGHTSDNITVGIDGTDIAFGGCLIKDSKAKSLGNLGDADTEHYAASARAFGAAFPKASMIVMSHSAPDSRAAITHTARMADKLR

Structure (SMILES)	times less active than L-CS319 (in vitro NDM-1 inhibition) [1] [times]	toxic effects against Hek 293 cells [2]	toxic effects against HeLa cells [3]
CC1(C)S[C@@H]2CS[C@@H](CS)N2[C@H]1C(=O)O [D-VC26, (2S,5R,8S)-2-Mercaptomethyl-7-dimethyl-8-carboxylate-1-aza-3,6-dithiobicyclo[3.3.0]octane]	~2	–	–
O=C(O)[C@@H]1CS[C@H]2CS[C@H](CS)N21 [L-CS319, (2R,5S,8R)-8-Carboxylate-2-mercaptomethyl-1-aza-3,6-dithiobicyclo[3.3.0]octane]	–	did not show toxic effects	did not show toxic effects
